# Assays:
# [1] = test system: RKO36 cells; assay: GFP direct repeat assay of delayed hyperrecombination (GFP+/- colonies); type: cell-based, human
# Excerpt: Gene conversion can produce a local loss of heterozygosity (LOH) as well as deletions and inversions at linked repeats and translocations (Nickoloff, 2002). The inventor has utilized a green fluorescence protein (GFP)-based assay using human RKO-derived cells to study the role of delayed hyper-recombination in radiation-induced genomic instability (Huang et al., 2004). A GFP direct repeat homologous recombination substrate is incorporated in RKO cells.
# Genomic instability can be measured by analysis of delayed hyperrecombination and mutation/deletion at the GFP direct repeat substrate. GFP-RKO cells can be GFP− or GFP+. When these cells are plated, colonies arising from single cells are either homogenously colorless (GFP−) or green (GFP+). […] Mixed colonies arise by delayed hyperrecombination and can easily be scored using the criteria of having at least >4 cells per colony having an altered fluorescent phenotype. The frequency of induced instability can be calculated as the number of GFP+/− colonies per total surviving colonies scored.
# Genomic instability was evaluated in RKO36 cells by analysis of delayed hyperrecombination and mutation/deletion at the GFP direct repeat substrate. […] The frequency of induced instability is calculated as the number of GFP+/− colonies per total surviving colonies scored (Huang et al., 2004). […]
# [2] = test system: RKO36 cells; assay: Micronuclei formation in irradiated RKO36 cells; type: cell-based, human
# Procedure: Under the treatment conditions in which cells were exposed to WR1065 either 30 min before or 3 h following irradiation the protective effect is the result of a direct interaction between the thiol taken up by the cells and the damage induced by radiation. This direct protective effect disappeared when the drug was added 6 h following irradiation. However, when cells were exposed to the thiol 24 h prior to irradiation to allow for the induction of elevated MnSOD enzyme levels, a protective effect was again observed ([…]). In contrast to the data described in FIG. 4A, the protection described in FIG. 4B was mediated not directly by thiol action (Grdina et al., 1995) but as a result of a thiol-induced adaptive response mediated through the activation of NFκB resulting in the elevation of MnSOD activity (Murley et al., 2002; Murley et al., 2004; Murley et al., 2006; Murley et al., 2007; Murley et al., 2008). For comparison, a radiation-induced adaptive response was investigated by first exposing RKO36 cells to 10 cGy and then challenging with a 2 Gy dose 0, 4, 8, 12, 16, 20, and 24 h later (see FIG. 5).
structure (smiles),measurement,setting,value
"NCCCNCCS [WR1065, 2-[(aminopropyl)amino]ethanethiol]",frequency of GFP+/- colonies,"[1]; 4 mM WR1065 for 30 min, no irradiation, P=0.02 vs non-WR1065 irradiated cells (2.7%)",1.1%
same,frequency of GFP+/- colonies,"[1]; 10 cGy given 24 h following 4 mM WR1065 for 30 min, P=0.05 vs non-WR1065 irradiated cells (2.7%)",1.6%
same,"micronuclei formation, thiol-induced adaptive response",[2]; 2 Gy challenge 24 h following WR1065 exposure,reduction of micronuclei formation to unirradiated background levels
same,frequency of micronuclei formation,"[2]; 2 Gy, WR1065 30 min following irradiation (FIG. 4B)",significantly reduced
same,frequency of micronuclei formation,"[2]; 2 Gy, WR1065 30 min prior to irradiation (FIG. 4A)",significantly reduced
same,frequency of micronuclei formation,"[2]; 2 Gy, WR1065 1 h following irradiation (FIG. 4B)",significantly reduced
same,frequency of micronuclei formation,"[2]; 2 Gy, WR1065 2 h following irradiation (FIG. 4B)",significantly reduced
same,frequency of micronuclei formation,"[2]; 2 Gy, WR1065 3 h following irradiation (FIG. 4B)",significantly reduced
same,frequency of micronuclei formation,"[2]; 2 Gy, WR1065 24 h prior to irradiation (FIG. 4A)",significantly reduced
same,direct protective effect against micronuclei formation,"[2]; 2 Gy, drug added 6 h following irradiation",disappeared

# — patent publication US10987366B2, “Methods and compositions for protection of cells and tissues from computed tomography radiation” (The University of Chicago, priority 2010, dated 2021)
